Test results as given in patent publication US20210275498A1, “IMIDAZOLYL ETHANAMIDE PENTANDIOIC ACID FOR USE IN THERAPY OF SYMPTOMS RELATED TO EXPOSURE TO LETHAL RADIATION” (priority 2018, published 2021).

Legend:
Type in all cases: in vivo
[1] = system: C57BL/6 mice; test: ARS scoring (posture, coat, behavior) after whole-body irradiation; set-up: key to Supporting variable: ARS scores (trend): positive trend (descriptively) +; negative trend (descriptively) −; no difference (descriptively) 0
Description: Scores on a scale of 1 to 4 (minimal, mild, moderate and severe) for posture, coat, and behavior were recorded twice daily per SNBL SOP, beginning on Day −3, except on the day of scheduled necropsy when scoring occurred only once. Observations were performed by 5 individuals during the course of the study.
After Day 0, the first ARS scoring began in the morning and the second ARS scoring began 4 to 6 hours following the completion of the morning ARS scoring. On the day of scheduled necropsy, ARS scoring occurred in the morning, prior to necropsy.
Based on the ARS Scoring SNBL SOP, if the sum of the three parameter scores totaled 8 or higher, the animal was considered moribund and was euthanized with an unscheduled necropsy performed according to the moribund animal SOP.

[2] = system: C57BL/6 mice; test: Body weight after whole-body irradiation (response profile analysis); set-up: key to Supporting variable: Body weight (trend): positive trend (descriptively) +; negative trend (descriptively) −; no difference (descriptively) 0; conditions: for Body weight: % Difference from Baseline (g) (difference to vehicle group 2 at Day 0) / Body weight: % Difference from Vehicle / Body weight: Estimate, change relative to vehicle group 2: 5.8 Gy; for Body weight: Estimate, change relative to vehicle group 2: Group 6 GL (SCx1): 0.34 mg/kg SC SID Day 1, 2, 3, therapeutic
Description: Body weights were assessed twice during acclimation (including Day −3), once prior to irradiation (Day 0), and every 3 days thereafter. Terminal body weights were also collected, with the exception of Animal 4012.
The longitudinal data were analyzed taking into account the mean weight over time in each group and the covariance among the repeated measures by response profile analysis (Fitzmaurice et al., Wiley 2004, p 103-140.). The analysis was specified as a regression model with unstructured covariance to account for the correlation among repeated body weights of the same mouse and indicator variables for treatment groups and time, where the vehicle treatment was used as the reference group and Day 0 was taken as a reference for time.
The response profile analyses provide the following regression coefficients estimated by the restricted maximum likelihood (REML) method: intercept—mean body weight in the reference groups VL (POx1);2 and VH (POx1);8 at Day 0 treatment—difference between the mean body weight in the treatment groups and the vehicle groups at Day 0 time—body weight change from baseline in the reference groups treatment×time—treatment effect at each day estimated by comparison of change from baseline in the treatment groups and control groups For all regression coefficients, p-values and 95%-confidence intervals are provided. This method provides interpretable estimates, is valid if treatment groups differ at baseline, allows for arbitrary patterns in the mean body weight over time (no specific time trend e. g. linear curve assumed) and arbitrary patterns in the covariance. The analysis has certain robustness, as potential risks due to model misspecification are minimal.

[3] = system: C57BL/6 mice; test: Peripheral hematology after whole-body irradiation; set-up: key to Supporting variable: Hematology (trend): positive trend (descriptively) +; negative trend (descriptively) −; no difference (descriptively) 0
Excerpt: The primary outcome of this study was mortality and secondary outcomes were changes in hematology (peripheral and bone marrow). The endpoints were chosen to follow Animal Rule requirements that state that animal study endpoint be clearly related to the clinical benefit (generally, the enhancement of survival or prevention of major morbidity). The secondary endpoints were chosen to potentially contribute to an understanding of the disease or condition and a characterization of the treatment effect.

[4] = Day 30, Group 9 MH (POx1): 50 mg/kg per os SID Day 1, 2, 3, therapeutic, 6.0 Gy
[5] = Group 9 MH (POx1): 50 mg/kg per os SID Day 1, 2, 3, therapeutic, 6.0 Gy

Molecule: O=C(O)CCCC(=O)NCCc1c[nH]cn1 [Myelo001, 5-{[2-(1H-imidazol-4-yl)ethyl]amino}-5-oxo-pentanoic acid]
- frequency of normal posture score in comparison with control group ([1]; Day 15, Group 3 ML (IPx2): 25 mg/kg IP, Day −3 to 0 (6x), prophylactic, 5.8 Gy): did not result in such changes
- ARS posture score, most frequent grade (mode) ([1]; Day 15, Group 4 ML (POx2): 25 mg/kg per os, Day −3 to 0 (6x), prophylactic, 5.8 Gy, control group 2 mild): normal
- ARS posture score, most frequent grade (mode) ([1]; Day 15, Group 5 ML (POx1): 50 mg/kg per os SID Day −2, −1, 0, prophylactic, 5.8 Gy, control group 2 mild): normal
- ARS coat grade ([1]; Day 21, Group 9 MH (POx1): 50 mg/kg per os SID Day 1, 2, 3, therapeutic, 6.0 Gy, control Group 8 mild (20%) and moderate (27%)): mostly normal
- frequency of normal posture score in comparison to control group 8 [1, 4]: trend for the increased frequency of normal posture score
- Supporting variable: ARS scores (trend) ([1]; Group 3 ML (IPx2): 25 mg/kg IP, Day −3 to 0 (6x), prophylactic, 5.8 Gy): −
- Supporting variable: ARS scores (trend) ([1]; Group 5 ML (POx1): 50 mg/kg per os SID Day −2, −1, 0, prophylactic, 5.8 Gy): +
- Supporting variable: ARS scores (trend) [1, 5]: +
- Body weight: % Difference from Baseline (g) (difference to vehicle group 2 at Day 0) ([2]; Day 0, Group 3 ML (IPx2): 25 mg/kg IP, Day −3 to 0 (6x), prophylactic): -0.8 g
- Body weight: % Difference from Baseline (g) (difference to vehicle group 2 at Day 0) ([2]; Day 0, Group 4 ML (POx2): 25 mg/kg per os, Day −3 to 0 (6x), prophylactic): -0.3 g
- Body weight: % Difference from Baseline (g) (difference to vehicle group 2 at Day 0) ([2]; Day 0, Group 5 ML (POx1): 50 mg/kg per os SID Day −2, −1, 0, prophylactic): -0.3 g
- Body weight: Estimate (g), change relative to vehicle Group 8 ([2]; Day 0, Group 9 MH (POx1): 50 mg/kg per os SID Day 1, 2, 3, therapeutic, 6.0 Gy): 0.0 g
- Body weight: % Difference from Vehicle ([2]; Day 3, Group 3 ML (IPx2): 25 mg/kg IP, Day −3 to 0 (6x), prophylactic): 0.6 g
- Body weight: % Difference from Vehicle ([2]; Day 3, Group 4 ML (POx2): 25 mg/kg per os, Day −3 to 0 (6x), prophylactic): 0.7 g
- Body weight: % Difference from Vehicle ([2]; Day 3, Group 5 ML (POx1): 50 mg/kg per os SID Day −2, −1, 0, prophylactic): 0.4 g
- Body weight: Estimate (g), change relative to vehicle Group 8 ([2]; Day 3, Group 9 MH (POx1): 50 mg/kg per os SID Day 1, 2, 3, therapeutic, 6.0 Gy): 0.2 g
- compensation of weight loss relative to vehicle Group 8 (amounts up to) ([2]; Day 3 to 30, Group 9 MH (POx1): 50 mg/kg per os SID Day 1, 2, 3, therapeutic, 6.0 Gy): up to 3.1 g
- Body weight: % Difference from Vehicle ([2]; Day 9, Group 3 ML (IPx2): 25 mg/kg IP, Day −3 to 0 (6x), prophylactic): 0.5 g
- Body weight: % Difference from Vehicle ([2]; Day 9, Group 4 ML (POx2): 25 mg/kg per os, Day −3 to 0 (6x), prophylactic): 0.6 g
- Body weight: % Difference from Vehicle ([2]; Day 9, Group 5 ML (POx1): 50 mg/kg per os SID Day −2, −1, 0, prophylactic): 0.4 g
- Body weight: Estimate (g), change relative to vehicle Group 8 ([2]; Day 9, Group 9 MH (POx1): 50 mg/kg per os SID Day 1, 2, 3, therapeutic, 6.0 Gy): 0.4 g
- Body weight: % Difference from Vehicle ([2]; Day 15, Group 3 ML (IPx2): 25 mg/kg IP, Day −3 to 0 (6x), prophylactic): 0.1 g
- Body weight: % Difference from Vehicle ([2]; Day 15, Group 4 ML (POx2): 25 mg/kg per os, Day −3 to 0 (6x), prophylactic): -0.8 g
- Body weight: % Difference from Vehicle ([2]; Day 15, Group 5 ML (POx1): 50 mg/kg per os SID Day −2, −1, 0, prophylactic): -0.4 g
- Body weight: Estimate (g), change relative to vehicle Group 8 ([2]; Day 15, Group 9 MH (POx1): 50 mg/kg per os SID Day 1, 2, 3, therapeutic, 6.0 Gy): 1.4 g
- Body weight: % Difference from Vehicle ([2]; Day 21, Group 3 ML (IPx2): 25 mg/kg IP, Day −3 to 0 (6x), prophylactic): 1.0 g
- Body weight: % Difference from Vehicle ([2]; Day 21, Group 4 ML (POx2): 25 mg/kg per os, Day −3 to 0 (6x), prophylactic): -0.7 g
- Body weight: % Difference from Vehicle ([2]; Day 21, Group 5 ML (POx1): 50 mg/kg per os SID Day −2, −1, 0, prophylactic): -0.1 g
- Body weight: Estimate (g), change relative to vehicle Group 8 ([2]; Day 21, Group 9 MH (POx1): 50 mg/kg per os SID Day 1, 2, 3, therapeutic, 6.0 Gy): 3.1 g
- Body weight: % Difference from Vehicle ([2]; Day 30, Group 3 ML (IPx2): 25 mg/kg IP, Day −3 to 0 (6x), prophylactic): 0.1 g
- Body weight: % Difference from Vehicle ([2]; Day 30, Group 4 ML (POx2): 25 mg/kg per os, Day −3 to 0 (6x), prophylactic): -1.1 g
- Body weight: % Difference from Vehicle ([2]; Day 30, Group 5 ML (POx1): 50 mg/kg per os SID Day −2, −1, 0, prophylactic): 0.1 g
- Body weight: Estimate (g), change relative to vehicle Group 8 [2, 4]: 2.6 g
- Supporting variable: Body weight (trend) [2, 5]: +
- hemoglobin, red blood cells, hematocrit compared to group 8 ([3]; Day 14 and Day 30, Group 9 MH (POx1): 50 mg/kg per os SID Day 1, 2, 3, therapeutic, 6.0 Gy): in favor of group 9
- Supporting variable: Hematology (trend) ([3]; Group 4 ML (POx2): 25 mg/kg per os, Day −3 to 0 (6x), prophylactic, 5.8 Gy): 0

B1: G-CSF: Neupogen (Filgrastim; Granulocyte colony-stimulating factor; G-CSF), positive control article, Amgen (protein, UniProt P09919 31-207, looked up)
Granulocyte …: TPLGPASSLPQSFLLKCLEQVRKIQGDGAALQEKLVSECATYKLCHPEELVLLGHSLGIPWAPLSSCPSQALQLAGCLSQLHSGLFLYQGLLQALEGISPELGPTLDTLQLDVADFATTIWQQMEELGMAPALQPTQGAMPAFASAFQRRAGGVLVASHLQSFLEVSYRVLRHLAQP
modifications: filgrastim
notes: Neupogen (Filgrastim; Granulocyte colony-stimulating factor; G-CSF), positive control article, Amgen
- ARS scoring for coat ([1]; Day 9, Group 6 GL (SCx1): 0.34 mg/kg SC SID Day 1, 2, 3, therapeutic, 5.8 Gy): increased percentage of mild grade
- ARS posture score, most frequent grade (mode) ([1]; Day 15, Group 6 GL (SCx1): 0.34 mg/kg SC SID Day 1, 2, 3, therapeutic, 5.8 Gy, control group 2 mild (65%)): normal
- Supporting variable: ARS scores (trend) ([1]; Group 6 GL (SCx1): 0.34 mg/kg SC SID Day 1, 2, 3, therapeutic, 5.8 Gy): +
- Body weight: Estimate, change relative to vehicle group 2 ([2]; Day 0): -0.5 g
- Body weight: Estimate, change relative to vehicle group 2 ([2]; Day 3): 0.3 g
- Body weight: Estimate, change relative to vehicle group 2 ([2]; Day 9): -0.4 g
- Body weight: Estimate, change relative to vehicle group 2 ([2]; Day 15): 0.4 g
- Body weight: Estimate, change relative to vehicle group 2 ([2]; Day 21): 3.3 g
- Body weight: Estimate, change relative to vehicle group 2 ([2]; Day 30): 0.5 g
- hemoglobin and hematocrit, red blood cells compared to control group 2 ([3]; Day 14, Group 6 GL (SCx1): 0.34 mg/kg SC SID Day 1, 2, 3, therapeutic, 5.8 Gy): increased
- median WBC and neutrophil count compared to control Group 2 ([3]; Day 30, Group 6 GL (SCx1): 0.34 mg/kg SC SID Day 1, 2, 3, therapeutic, 5.8 Gy): trend in the increase
